Assay results from paper PMC7743948, “D-LL-31 enhances biofilm-eradicating effect of currently used antibiotics for chronic rhinosinusitis and its immunomodulatory activity on human lung epithelial cells” (PLoS ONE, 2020).
Square brackets hold non-standard residues; d marks the D form. Peptide text beside a SMILES is read from it.

Tests used:
[1] = tested on: A549 cells (human lung epithelial cells); conditions: 25 µM
Experimental: Briefly, A549 cells were maintained in RPMI-1640 (HyClone™, Marlborough, MA) with 10% fetal bovine serum (FBS) (HyClone™) and sub-cultured by standard methods using trypsin/EDTA (0.25% trypsin, 0.1% EDTA) (Corning™, Corning, NY). A standard curve of A549 cells (100–50000 cells/well) was constructed as previously described with some modification [43]. For MTT assay, cells were plated at a density of 2.5×10^4 cells/well in 96-well plates and grown overnight. […] Prepared A549 cells were then exposed to the diluted peptides for 24 h at 37°C, 5% CO2 atmosphere. Negative controls received either culture medium or PPB. Cells with 2% dimethyl sulfoxide (DMSO) (Sigma-Aldrich) were used as positive control. Cytotoxicity was assessed using MTT (0.5 mg/ml) according to the manufacturer's instructions (Sigma-Aldrich). Absorbance was measured at a wavelength of 570 nm with background subtraction at 630–690 nm. Then absorbance values from the MTT were converted to cells/well using a standard curve. Cell viabilities were calculated using the formula; [mean of cells in treated well]/[mean of cells in control well] × 100%. Each experiment was performed independently three times in triplicate.

[2] = tested on: S. epidermidis biofilm; assay: Checkerboard synergy of D-LL-31 with antibiotics on biofilm; type: cell-based, Staphylococcus epidermidis; conditions: D-LL-31 combined with AMX; IC50 alone compared with concentration of combination
Experimental: (§1) Bacterial viability in each interaction was determined using the plate count technique. The fractional inhibitory concentration index (FICI) values were calculated and interpreted in terms of synergism/antagonism as previously described. Each experiment was performed independently three times in duplicate.

[3] = tested on: P. aeruginosa biofilm; assay: microbe, parasite or virus in culture; conditions: biofilm, 24 h
Experimental: (§2) The effects of both conventional antibiotics and AMPs against bacteria under biofilm-stimulating condition were determined using a transferable solid phase (TSP) pin lid, which resembles the ‘Calgary’ biofilm device as previously described with some modifications. Each strain (10^7 CFU/ml) was added to sterile 96-well plates (Nunclon™), then covered by a TSP pin lid (NUNC™, Roskilde, Denmark), and further incubated at 37 °C for 24 h. […] Additionally, the effect of TOB (2–836 μM or 1–391 μg/ml) against P. aeruginosa biofilm was also investigated. Then the plates were statically incubated at 37 °C for 24 h. A well free of antimicrobial agent was used as a control. After 24 h, bacterial survival was determined using the plate count technique on NA (Himedia®). The percentage killing of each antimicrobial agent was calculated using the formula [1 − (CFU sample/CFU control)] × 100% [15, 19]. […] Each experiment was performed independently three times in duplicate.

[4] = tested on: S. epidermidis biofilm; assay: microbe, parasite or virus in culture
Experimental: as §2

[5] = tested on: K. pneumoniae biofilm; assay: microbe, parasite or virus in culture; conditions: biofilm, 24 h
Experimental: as §2

[6] = tested on: all bacteria in biofilm; assay: Killing of bacteria grown as biofilm (TSP pin lid), statements for all bacteria; type: cell-based
Experimental: as §2

[7] = tested on: hRBCs (human red blood cells); conditions: cited from earlier work
[8] = tested on: P. aeruginosa biofilm; assay: Checkerboard synergy of D-LL-31 with antibiotics on biofilm; type: cell-based, Pseudomonas aeruginosa; conditions: IC50 alone compared with concentration of combination
Experimental: as §1

[9] = tested on: K. pneumoniae biofilm; assay: as above; type: cell-based, Klebsiella pneumoniae; conditions: D-LL-31 combined with AMX; IC50 alone compared with concentration of combination
Experimental: as §1

[10] = tested on: A549 human lung epithelial cells; assay: Cytokine antibody array of culture supernatant; type: cell-based; conditions: 10 μM, 24 h
Experimental: The immunomodulatory effect of D-LL-31 on A549 human lung epithelial cells was investigated using cytokine antibody arrays. […] Cells in medium without peptide were used as a control. After incubation, the secreted cytokines in culture supernatant were detected using a human angiogenesis antibody array kit (AAH-ANG-1000-4, Norcross, GA) according to the manufacturer's instructions. […] Each experiment was performed independently two times in duplicate.

[11] = tested on: P. aeruginosa biofilm matrix; assay: Biofilm matrix reduction (AAA-model, CLSM, COMSTAT biomass); type: cell-based, Pseudomonas aeruginosa; conditions: combination of D-LL-31 (0.5 μM) and TOB (0.2 μM), 24 h
Experimental: (§3) Briefly, 1.5 ml of each overnight culture (10^8 CFU/ml) was added to a 24-well tissue culture plate (Nunclon™). The plate was covered with a sterile stainless-steel lid containing glass coverslips and aerobically incubated at 37°C for 24 h. […] All tested conditions were incubated at 37°C for 24 h. A well free of antimicrobial agent was used as a control. Following incubation, biofilms were fixed with 2.5% glutaraldehyde (Sigma-Aldrich) at 25°C for 3 h. The fixed bacterial biofilms on glass coverslips were stained with 50 μg/ml Alexa Fluor® 488 (Invitrogen, Carlsbad, CA) for 30 min. This stain reacts with exopolysaccharide matrixes of the biofilm. The glass coverslips were then mounted with 80% glycerol and the stained cells were photographed using a confocal laser-scanning microscope (CLSM) (TCS SP8-Leica Microsystems, Wetzlar, Germany). […] Each experiment was performed independently three times in duplicate.

[12] = tested on: biofilm matrix of all tested strains; assay: Biofilm matrix reduction (AAA-model, CLSM, COMSTAT biomass), statements for all tested strains; type: cell-based
Experimental: as §3

[13] = tested on: all tested isolates (K. pneumoniae, S. epidermidis, P. aeruginosa, P. aeruginosa ATCC 27853); assay: Killing of planktonic bacteria (CFU count), statements for all tested isolates; type: cell-based; conditions: 1 μM, within 1 h, 5 x 10^5 CFU/ml, all tested strains
Experimental: A bacterial suspension without peptide served as a control. The samples were then serially diluted and cultivated on NA (Himedia®) and incubated for 24 h to allow colony counting. […] Each experiment was performed independently three times in duplicate.

With `CC[C@@H](C)[C@@H](NC(=O)[C@@H](CCCCN)NC(=O)[C@@H](CCC(=O)O)NC(=O)[C@@H](CCCCN)NC(=O)[C@@H](CO)NC(=O)[C@@H](CCCCN)NC(=O)[C@@H](CCCNC(=N)N)NC(=O)[C@@H](Cc1ccccc1)NC(=O)[C@@H](Cc1ccccc1)NC(=O)[C@@H](CC(=O)O)NC(=O)CNC(=O)[C@@H](CC(C)C)NC(=O)[C@H](N)CC(C)C)C(=O)NCC(=O)N[C@H](CCCCN)C(=O)N[C@H](CCC(=O)O)C(=O)N[C@H](Cc1ccccc1)C(=O)N[C@H](CCCCN)C(=O)N[C@H](CCCNC(=N)N)C(=O)N[C@@H](C(=O)N[C@@H](C(=O)N[C@H](CCC(N)=O)C(=O)N[C@H](CCCNC(=N)N)C(=O)N[C@@H](C(=O)N[C@H](CCCCN)C(=O)N[C@H](CC(=O)O)C(=O)N[C@H](Cc1ccccc1)C(=O)N[C@H](CC(C)C)C(=O)N[C@H](CCCNC(=N)N)C(=O)N[C@H](CC(N)=O)C(=O)N[C@H](CC(C)C)C(=O)O)[C@H](C)CC)C(C)C)[C@H](C)CC` [D-LL-31] (H-[dL][dL]G[dD][dF][dF][dR][dK][dS][dK][dE][dK][dI]G[dK][dE][dF][dK][dR][dI][dV][dQ][dR][dI][dK][dD][dF][dL][dR][dN][dL]-OH; N-terminus and C-terminus assumed) the viable cells [1] was “more than 80%”, the “Fold decrease of IC50 values” [2] was 16 fold and the IC50 [3] was 4000 nM. The “killing activity compared with all tested peptides” value ([4]; 1.56–25 μM, P < 0.05, one-way ANOVA) was “significantly higher”, the IC50 ([4]; biofilm, 24 h) was 500 nM and the IC50 [5] was 600 nM. The IC50 ([6]; 24 h biofilm, 24 h, read-out: IC50 values, range over all bacteria in biofilm) was 500 to 4000 nM, the “IC70 values, range” value ([6]; D-LL-31 alone and in combination with antibiotics, biofilm-stimulating condition) was 800 to 8700 nM and the IC90 ([6]; bacteria grown as biofilm, read-out: IC90 values, range) was 1000 to 25000 nM. For the same molecule, the hemolytic activity [7] was “less than 1%”, the “Fold decrease of IC50 values” ([8]; D-LL-31 combined with AMX) was 16 fold and the “Fold decrease of IC50 values” ([8]; D-LL-31 combined with TOB) was 8 fold. For the same molecule, the “Fold decrease of IC50 values” [9] was 8 fold, the “expression of IFN-γ” value [10] was “not found” and the “expression of IL-6” value [10] was “did not induce”. For the same molecule, the “levels of IL-4, IL-8, TNF-α and GRO-a, b and g” value [10] was “no significant change”, the “ENA-78 secretion relative to controls” value ([10]; P < 0.05) was “significantly secreted” and the “TIMP-2 in culture supernatant” value ([10]; P < 0.05) was “significantly elevated”. For the same molecule, the “biofilm matrix relative to controls” value [11] was “statistically significant reduction”, the “biofilm biomass relative to controls” value ([12]; D-LL-31 in combination with antibiotics, 24 h, P < 0.001) was “Significant decreases” and the “biofilm biomass relative to controls” value ([12]; D-LL-31 treatment alone at IC50, 24 h, P < 0.01) was “Significant decreases”. The “biofilm matrix relative to controls” value ([12]; combination of D-LL-31 with AMX, 24 h, all tested strains) was “distinct decrease” and the “killing of bacterial cells, in words” value [13] was “completely killed”.
